Experimental data: patent publication US9862754B2, “Peptide analogs for treating diseases and disorders” (KeyBioscience AG, priority 2011, dated 2018)
Bridge positions count the residues as written; N and C are the ends. Ends that are not written are not given here.

Columns and labels:
Format in all cases: in vivo, rat
[1] = Example 7: oral glucose tolerance test in Zucker Diabetic Fatty rats; settings: ZDF rats; metformin 400 mg/kg/day oral, UGP302 5 μg/kg/day s.c.
Procedure: To assess the potential of UGP302 (SEQ ID NO: 15) in combination with metformin, Zucker Diabetic Fatty rats were used. At the age of 6 weeks 40 rats were randomized into four groups according to HbA1c, FPG and BW. The groups were: Control (Vehicle), Metformin 400 mg/kg/day, UGP302 5 μg/kg/day and the combination of the two molecules in the stated respective amounts. The treatments were given once daily, and metformin was dosed orally, while UGP302 was given subcutaneously, and the animals were treated for 8 weeks. Fasting blood glucose (FPG) and non-fasted blood glucose (PPG) were monitored biweekly, while HbA1c was measured at termination.
To further assess the effect of both single doses of each molecule and the combination of these at those same doses, the rats underwent an oral glucose tolerance test (OGTT, FIGS. 23A-23B) and an insulin tolerance test (ITT, FIGS. 24A-24B).

[2] = Example 3: OGTT after 3 days of oral treatment in DIO rats; settings: doses of 0.5, 1 and 2 mg/kg p.o.
Procedure: (§1) Drug administration were given by per oral (p.o.) gavage b.i.d. during the study period and as single dose in the morning prior to start of OGTT.
(§2) Animals were given 2 g/kg single dose dissolved in milliQ H20.
Following the initial (1st) OGTT, animals were randomized into treatment groups based on FBG and BW. Animals were pre-treated 3 days (b.i.d.) prior to 2nd OGTT. The study was performed in an x-over design with each animal being its own control.
(§3) OGTT Following Overnight Fasting (16 h):
Blood sampling and glycemia were measured by heated tail venous puncture. Whole blood glucose levels were determined with an ACCU-CHEK® Avia blood glucose meter (Roche Diagnostics, Rotkreuz, Switzerland). Blood (approx 300 μl) is collected in 1 ml MiniCollect K3EDTA plasma-tube (Greiner-Bio-One GmbH, Frickenhausen, Germany), inverted, and stored on ice. Tubes are centrifuged 3000×g (5000 rpm in table centrifuge) for 10 min at 4° C. and plasma obtained. Plasma samples are stored at −20° C. until analysis. A total of ˜2.5 ml blood is obtained during OGTT (˜0.3% of body weight).
Statistical analysis was performed by one-way ANOVA followed by the Dunnett's post hoc test for multiple comparison. Student's t-test was performed to compare two paired group. All analysis was performed using GRAPHPAD PRISM software (GraphPad Prism, San Diego, Calif. U.S.A). Incremental area under curve (iAUC) during OGTT was calculated by the trapezoidal method. A value of P<0.05 was considered to be significant. All data are presented as mean±standard error of the mean (SEM).
FIG. 10A, FIG. 10B, FIG. 10C, FIG. 10D, FIG. 10E, and FIG. 10F show the effect of oral sCT versus oral UGPs on glucose tolerance during OGTT in DIO rats. Three different doses of oral sCT/UGP284/UGP298/UGP302 containing 0.5, 1 and 2 mg/kg compound were applied by gavage twice daily to 4 groups of rats for 3 days prior to OGTT. The experimental set-up was a cross-over design. * P<0.05, ** P<0.01, *** P<0.001 vs oral vehicle. Results are presented as means±SEM.

CTX-I = test: Example 6: serum CTX-I (RatLaps ELISA), bone resorption in DIO rats; settings: 1 mg/kg p.o. with 150 mg/kg 5-CNAC, 2 hours after treatment, vs sCT
Procedure: The effect of sCT/calcitonin mimetic on bone and cartilage loss was studied in DIO rats. The animals were dosed as described in Table 6 below, and 2 hours after treatment blood sampling was done by heated tail venous puncture.
Serum CTX-I levels, as an indication of bone resorption, were measured using the RatLaps™ ELISA, and serum CTX-II levels, as an indication of cartilage degradation, were measured using the Serum PC Cartilaps™ ELISA.

[3] = Example 2: OGTT after 3 days of oral treatment in DIO rats; settings: 0.5, 1 and 2 mg/kg p.o. b.i.d. 3 days prior to OGTT, cross-over, vs oral vehicle
Procedure: as §1, §2
Following the initial (1st) OGTT, animals are randomized into treatment groups based on FBG and BW. Animals will be pre-treated 3 days (b.i.d.) prior to 2nd OGTT. Dosing will be performed in the morning (7-8 am) and afternoon (3-4 pm).
The study was performed in an x-over design with each animal being its own control.
as §3
Whole blood glucose levels were determined with an ACCU-CHEK® Avia blood glucose meter (Roche Diagnostics, Rotkreuz, Switzerland). […]
Statistical analysis was performed by one-way ANOVA followed by the Dunnett's post hoc test for multiple comparison. […] Incremental area under curve (iAUC) during OGTT was calculated by the trapezoidal method. […]
Three different doses of oral sCT/calcitonin mimetic 1 containing 0.5, 1 and 2 mg/kg compound were applied by gavage twice daily to 4 groups of rats for 3 days prior to OGTT. […] FIG. 7A and FIG. 7B show the effect of oral sCT versus oral UGP 302 at a first dosage on glucose tolerance during OGTT in DIO rats as measured in Example 2. FIG. 8A and FIG. 8B show the effect of oral sCT versus oral UGP 302 at a second dosage on glucose tolerance during OGTT in DIO rats as measured in Example 2.

[4] = Example 1: OGTT after 2 weeks of oral treatment in DIO rats; settings: after 2 weeks of treatment, overnight fasting, 1 mg/kg p.o., vs oral vehicle
Procedure: Drug administration by per oral (p.o.) gavage b.i.d. (7-8 am and 3-4 pm) during the study period and as single dose in the morning prior to start of OGTT.
as §2, §3
Blood sampling and glycemia were measured by heated tail venous puncture.
Whole blood glucose levels were determined with an ACCU-CHEK® Avia blood glucose meter (Roche Diagnostics, Rotkreuz, Switzerland). Blood (approx 300 ul) is collected in 1 ml MiniCollect K3EDTA plasma-tube (Greiner-Bio-One GmbH, Frickenhausen, Germany), inverted, and stored on ice. Tubes are centrifuged 3000×g (5000 rpm in table centrifuge) for 10 min at 4° C. and plasma obtained. Plasma samples are stored at −20° C. until analysis. A total of ˜2.5 ml blood is obtained during OGTT (˜0.3% of body weight).
Statistical analysis was performed by one-way ANOVA followed by the Dunnett's post hoc test for multiple comparison. Student's t-test was performed to compare two paired group. All analysis was performed using GRAPHPAD PRISM software (GraphPad Prism, San Diego, Calif. U.S.A). Incremental area under curve (iAUC) during OGTT was calculated by the trapezoidal method. A value of P<0.05 was considered to be significant. All data are presented as mean±standard error of the mean (SEM). […]

For “Ac-CSNLSTCVLGKLSQELHKLQTYPRTDVGANAP-NH2 (Ac-CSNLSTCVLGKLSQELHKLQTYPRTDVGANAP-NH2; ends and bridges not checked) [UGP302, calcitonin mimetic]”, the “glucose tolerance (OGTT)” value [1] was “individually improve”, the “glucose tolerance during OGTT” value [2] was “improvement in glucose tolerance” and the “bone resorption (serum CTX-I levels)” value (CTX-I) was “stronger effect in reduction”.
In the case of “salmon calcitonin (CSNLSTCVLGKLSQELHKLQTYPRTNTGSGTP-NH2; disulfide 1-7; ends not checked) [sCT, reference compound]”, the “glucose iAUC during OGTT” value [3] is reported as “significantly reduced glucose iAUC” and the “glucose iAUC during OGTT” value [4] is reported as “significantly reduced glucose iAUC”.
